What all share (test): Cysteine liganding, probe competition
Common to all, as to format: binding

In assay [1] the target is T1, UniProt Q13064 (Homo sapiens, UniProt Q13064).
T1 construct: Cells were resuspended in cold PBS on ice and sonicated with a probe sonicator to achieve lysis; endogenous in cells
T1 sequence (Q13064 1-507): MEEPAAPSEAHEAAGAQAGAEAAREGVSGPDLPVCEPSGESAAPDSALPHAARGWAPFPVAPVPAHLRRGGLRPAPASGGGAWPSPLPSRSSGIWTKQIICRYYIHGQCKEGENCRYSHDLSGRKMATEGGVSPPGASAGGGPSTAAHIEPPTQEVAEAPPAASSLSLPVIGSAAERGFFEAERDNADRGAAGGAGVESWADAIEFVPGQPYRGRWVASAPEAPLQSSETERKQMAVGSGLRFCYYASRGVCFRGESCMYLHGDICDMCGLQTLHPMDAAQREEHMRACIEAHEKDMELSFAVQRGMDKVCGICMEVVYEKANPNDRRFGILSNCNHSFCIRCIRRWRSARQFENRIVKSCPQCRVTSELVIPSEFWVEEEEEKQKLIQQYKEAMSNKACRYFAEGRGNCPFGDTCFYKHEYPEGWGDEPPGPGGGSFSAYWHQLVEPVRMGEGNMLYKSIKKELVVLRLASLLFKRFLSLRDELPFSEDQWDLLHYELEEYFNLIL
The text has this: (§1) The following 96-well sample prep protocol was used for sample preparation.

In assay [2] the target is T2, UniProt O14544 (Homo sapiens, UniProt O14544).
T2 construct: 200 μL of lysate containing 5 mg/ml proteome was treated with 2 μL of 100× compound stock; endogenous in cells
T2 sequence (O14544 1-535): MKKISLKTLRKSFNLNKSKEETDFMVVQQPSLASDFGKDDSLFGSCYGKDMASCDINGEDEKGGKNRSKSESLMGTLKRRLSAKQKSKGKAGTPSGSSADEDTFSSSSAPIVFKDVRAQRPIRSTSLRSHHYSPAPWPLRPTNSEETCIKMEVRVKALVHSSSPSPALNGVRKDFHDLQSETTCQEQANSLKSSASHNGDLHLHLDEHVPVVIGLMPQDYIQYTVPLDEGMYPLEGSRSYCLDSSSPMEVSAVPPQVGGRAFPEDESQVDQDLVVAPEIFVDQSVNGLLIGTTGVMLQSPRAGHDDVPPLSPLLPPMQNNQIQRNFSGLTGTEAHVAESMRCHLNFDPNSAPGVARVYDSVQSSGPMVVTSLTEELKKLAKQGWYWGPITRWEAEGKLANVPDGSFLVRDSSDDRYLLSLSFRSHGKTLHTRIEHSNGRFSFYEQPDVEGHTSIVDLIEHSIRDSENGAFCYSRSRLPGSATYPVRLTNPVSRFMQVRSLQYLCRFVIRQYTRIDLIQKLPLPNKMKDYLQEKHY
As to conditions: for inhibition at 100 µM: read-out: percent_inhibition.
Text: as §1

For assay [3], the target named is T3, UniProt Q96G25 (Homo sapiens, UniProt Q96G25).
T3 construct: Cells were resuspended in cold PBS on ice and sonicated with a probe sonicator to achieve lysis; endogenous in cells
T3 sequence (Q96G25 1-268): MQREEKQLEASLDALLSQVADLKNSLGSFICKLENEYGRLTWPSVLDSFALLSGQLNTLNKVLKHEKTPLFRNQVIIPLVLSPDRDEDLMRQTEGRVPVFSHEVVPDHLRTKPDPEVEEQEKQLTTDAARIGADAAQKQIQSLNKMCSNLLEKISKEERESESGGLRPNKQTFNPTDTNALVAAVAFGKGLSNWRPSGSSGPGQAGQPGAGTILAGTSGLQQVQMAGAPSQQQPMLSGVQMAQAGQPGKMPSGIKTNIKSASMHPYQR
Text: as §1

Assay [4] concerns the target T4, UniProt Q3KNV8 (Homo sapiens, UniProt Q3KNV8).
T4 construct: Cells were resuspended in cold PBS on ice and sonicated with a probe sonicator to achieve lysis; endogenous in cells
T4 sequence (Q3KNV8 1-242): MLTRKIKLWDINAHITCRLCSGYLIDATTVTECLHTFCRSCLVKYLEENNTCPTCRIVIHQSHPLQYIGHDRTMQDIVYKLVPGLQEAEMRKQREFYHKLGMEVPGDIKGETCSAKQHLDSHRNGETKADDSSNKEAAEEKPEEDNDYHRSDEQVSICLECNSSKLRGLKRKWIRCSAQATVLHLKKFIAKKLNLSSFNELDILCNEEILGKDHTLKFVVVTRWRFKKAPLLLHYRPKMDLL
Text: as §1

The target of assay [5] is T5, UniProt Q9Y252 (Homo sapiens, UniProt Q9Y252).
T5 construct: 200 μL of lysate containing 5 mg/ml proteome was treated with 2 μL of 100× compound stock; endogenous in cells
T5 sequence (Q9Y252 1-685): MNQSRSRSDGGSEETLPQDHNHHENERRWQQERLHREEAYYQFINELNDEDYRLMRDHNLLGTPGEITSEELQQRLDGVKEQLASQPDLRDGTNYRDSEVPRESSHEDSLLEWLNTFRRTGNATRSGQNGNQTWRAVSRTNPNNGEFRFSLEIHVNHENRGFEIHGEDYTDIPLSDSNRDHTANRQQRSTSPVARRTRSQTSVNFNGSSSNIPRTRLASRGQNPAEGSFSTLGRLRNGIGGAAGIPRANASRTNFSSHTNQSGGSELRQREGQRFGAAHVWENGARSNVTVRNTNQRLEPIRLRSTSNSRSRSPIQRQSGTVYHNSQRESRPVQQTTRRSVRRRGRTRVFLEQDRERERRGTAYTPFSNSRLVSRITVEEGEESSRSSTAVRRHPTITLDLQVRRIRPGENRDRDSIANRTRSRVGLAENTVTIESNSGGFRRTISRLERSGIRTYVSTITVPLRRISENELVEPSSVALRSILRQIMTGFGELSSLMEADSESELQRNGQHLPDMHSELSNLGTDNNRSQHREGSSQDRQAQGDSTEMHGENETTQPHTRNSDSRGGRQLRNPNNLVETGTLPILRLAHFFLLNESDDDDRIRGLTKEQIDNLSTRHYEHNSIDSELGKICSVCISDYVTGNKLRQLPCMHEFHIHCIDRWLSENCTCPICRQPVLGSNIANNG
Particulars: for inhibition at 500 µM: read-out: percent_inhibition.
Text: as §1

Where [6] appears, read: 100 uM, read-out: percent inhibition.
Setting [7] is: 500 uM, read-out: percent inhibition.

Read-outs that look alike come from different tables or passages of the source.

As to `COc1ccc2c(c1)CCCN2C(=O)CCl` [KB02], the inhibition at 100 µM in assay [1] (setting [6]) amounted to 2%; in assay [2] it was 35%; in assay [3] (setting [6]) it was 29%; in assay [4] (100 uM, read-out: KB02_100 uM_percent_inhibition), 19%. For the same molecule, the inhibition at 500 µM in assay [1] (setting [7]) worked out at 37%; in assay [4] (500 uM, read-out: KB02_500 uM_percent_inhibition) it was 52%; in assay [5] it was 38%. This molecule also came in with a percent inhibition in assay [3] (100 uM) of 31%. Also, in assay [4] (500 uM), the “KB02_500 uM_percent_inhibition” value amounted to 57%.

Consider `C=CC(=O)N(c1ccccc1)c1ccc(Br)cc1` [KB05], for which the inhibition at 500 µM in assay [1] (setting [7]) was 23%; in assay [3] (setting [7]) it was 31%; in assay [4] (500 uM, read-out: KB05_500 uM_percent_inhibition), 58%; in assay [5], 51%. Moreover, the inhibition at 100 µM in assay [2] was determined as 59%; in assay [3] (setting [6]) it was 10%; in assay [4] (100 uM, read-out: KB05_100 uM_percent_inhibition), 14%. This molecule also gave a percent inhibition in assay [3] (500 uM) of 40%. Besides, in assay [4] (500 uM), the “KB05_500 uM_percent_inhibition” value is 50%.

On to `O=C(CCl)Nc1cc(C(F)(F)F)cc(C(F)(F)F)c1` [KBO3], for which the percent inhibition amounted to 16% in assay [1] (500 uM) and 8% in assay [3] (100 uM). Further, the values for the percent_inhibition in assay [2] (100 uM) and in assay [5] (500 uM) were 83% and 9%, respectively. The “KB03_100 uM_percent_inhibition” value in assay [4] (100 uM) was found to be 6%.
